These are literature values, as cited in patent publication US11103503B2, “Pharmaceutical compositions of Lurasidone” (SLAYBACK PHARMA LLC, priority 2019, dated 2021).

The conditions of data set [1]: fed state.

In the case of `O=C1[C@@H]2[C@H]3CC[C@H](C3)[C@@H]2C(=O)N1C[C@@H]1CCCC[C@H]1CN1CCN(c2nsc3ccccc23)CC1` [Lurasidone, N-4-4-(1,2-benzisothiazol-3-yl)-1-piperazinyl-(2R,3R)-2,3-tetramethylene-butyl-(1R,2S,3R,4'S)-2,3-bicyclo[2.2.1]heptanedicarboxyimide], the solubility in water entry is “very slightly soluble”. In data set [1], the administered dose absorbed is listed as 9-19%.
